From patent US20260373226A1, “METHODS AND COMPOSITIONS FOR THE TREATMENT OF NEURODEGENERATIVE DISEASE” (Stealth BioTherapeutics Inc., priority 2022, published 2026)
Entries after “also recorded” stand apart in the source; their conditions may differ.

Key:
[1] = Phase 1 clinical plasma PK in healthy volunteers; assay type: in vivo, human
From the text: (§1) The primary objective of this study is to evaluate the safety and tolerability of single and multiple ascending doses of SBT-272 administered via subcutaneous injection in healthy volunteers. The secondary objects of this study are to: (a) evaluate the plasma PK of SBT-272 in healthy volunteers following subcutaneous administration of single and multiple ascending doses; and (b) to determine an appropriate dose range for subsequence clinical evaluation.

[2] = system: models of neurodegeneration; assay: In vitro effect concentration (in vitro-in vivo correlation); assay type: cell-based; details: FIG. 3A
From the text: (§2) See Guatam M., Platform presentation. NEALS, 2022. […] See Keefe, et al. (2019); Gautam, et al. (2022); Guatam, et al. (2021). Gautam, et al., SBT-272 improved mitochondria structure and function and preserved upper motor neurons with TDP-43 pathology, Platform poster presentation, presented at NEALS poster session (2022); Bido, et al. (2021); Silva, et al. (2022); and Zariwala, et al., Effects of the mitochondria-targeting small molecule SBT-272 in the R6/2 transgenic mice of Huntington's Disease, Poster presented at Keystone Symposia poster Session, 2022.

[3] = system: models of neurodegeneration; assay: In vivo effect brain concentration (in vitro-in vivo correlation)
From the text: as §2

[4] = Brain exposure PK in rats after single SC dose; assay type: in vivo; details: rat; single 5 mg/kg SC
Method: FIG. 2A is a chart showing the in vivo pharmacokinetic (PK) and pharmacodynamic (PD) response to SBT-272 brain exposure in rats. Rat brain SBT-272 concentrations up to 36 hours after a single dose of SBT-272 (5 mg/kg; subcutaneous (SC); n=8 rats per time-point).
Evaluation of SBT-272 exposure in brain tissues after subcutaneous dosing. Brain tissues were collected, at various time points (see FIG. 2A) following a single 5 mg/kg subcutaneous (SC) administration of SBT-272 (n=8 rats per time point).
Briefly, issues samples were weighed in 2 mL microcentrifuge tubes (micro tube 2 mL, low protein binding, with screw cap, REF 72.694.600 (Sarstedt, Germany), weight of tissues was recorded in the study file. The centrifuge tubes were kept on ice throughout the procedure. Four times tissue weight purified deionized water with 0.1% formic acid (v/w) was added. Two metal beads were placed in each microcentrifuge tube (Metal Bead Lysing Matrix Bulk, MP, USA). Brain tissues were homogenized using Bead Ruptor (Omni International, USA) for 60 seconds using a speed of […] per cycle. Homogenates (96 μL) were transferred to […] microcentrifuge tubes with surface that minimized binding (REF 04-212-3500, Nerbe Plus, Germany). Homogenates were frozen and kept at −80 °C until sample extraction for LC/MS/MS analysis. Two samples (twice 96 μL) collected, one kept if repeat required. […]

[5] = Tolerability in nonhuman primates, 10 daily SC injections; assay type: in vivo, cynomolgus monkey; details: 10 days
Method: (§3) Pharmacokinetic profile of SBT-272 in nonhuman primate plasma, CSF, and brain. The objective of this study was to determine the pharmacokinetic profile of SBT-272 in CSF and plasma when delivered by subcutaneous (SC) injection for 10 days to cynomolgus monkeys. SBT-272 solution was administered daily by SC injection for 10 days. The following parameters and endpoints were evaluated in this study: mortality, clinical observations, body weights, pharmacokinetic samples (CSF and plasma), and selected tissue collection. There was no mortality during the study. […] Additional details regarding the experimental protocol are provided below.
Test System. Details Regarding the Test System are Provided Below: • Species: Nonhuman primate • Strain/Breed: Cynomolgus monkey • Animal Condition: Non-naïve • Animal Procurement Method: In-house colony • Animal Supplier: Charles River Laboratories • Animal Supplier Location: 531 Boul des Prairies, Laval, QC H7V 1B7, Canada • Animal Origin: Asia • Number of Males: 3 • Age at the Initiation of Dosing: 18 to 60 months • Weight at the Initiation of Dosing: 1.4 to 5.0 kg
• Route of Administration: Subcutaneous injection into the scapular and mid-dorsal areas • Treatment Frequency: Daily • Treatment Duration: 10 days • Method: The first day of dosing is designated as Day 1. Dose formulations are allowed to warm up at ambient temperature for at least 30 minutes prior to dosing, as appropriate. The animals are temporarily restrained for dose administration and are not be sedated. The volume for each dose is administered over 1 (preferred) or 2 (as necessary) separate injections within the designated area. Injection sites are rotated daily (see FIG. 4B). If a designated subcutaneous test site is not available for a given animal on any day, then the next available test site in the rotation should be used for dosing. The injection area is marked as frequently as required to allow appropriate visualization of administration sites. Hair may be clipped or shaved if required to improve visualization of the injection sites. […]

[6] = Time-concentration profile in plasma, CSF and brain, rat versus nonhuman primate; assay type: in vivo; details: FIGS. 4A and 4C; equivalent dose levels, single or repeated SC dosing
Method: Pharmacokinetic profile of SBT-272 in rat plasma, CSF, and brain (for FIG. 4A). Briefly, as described elsewhere herein, male Sprague-Dawley (SD) rats were subcutaneously administered a single, 10 mg/kg dose of SBT-272. Plasma, CSF, and brain (microdialysis) samples were obtained at the time points indicated on FIG. 4A and analyzed for SBT-272 concentration by HPLC with tandem mass spectrometry (HPLC-MS/MS).
as §3

[7] = Phase 1 clinical safety and tolerability in healthy volunteers; assay type: in vivo, human; details: Phase 1, healthy volunteers, SC; interim data analysis
From the text: as §1

Cc1cc(O)cc(C)c1C[C@H](NC(=O)[C@H](N)CCCNC(=N)N)C(=O)N[C@@H](CCCCN)c1nc(Cc2ccccc2)no1 [SBT-272, (R)-2-amino-N—((S)-1-(((S)-5-amino-1-(3-benzyl-1,2,4-oxadiazol-5-yl)pentyl)amino)-3-(4-hydroxy-2,6-dimethylphenyl)-1-oxopropan-2-yl)-5-guanidinopentanamide]
clinical PK versus expectations based on rat and nonhuman primate profiles ([1]; Phase 1, healthy volunteers, SC): consistent with expectations based on rat and nonhuman primate profiles
clinical PK profile versus non-clinical allometric scaling predictions ([1]; healthy subjects, FIG. 7, 40 mg once daily, interim): consistent with non-clinical allometric scaling predictions
optimal in vitro effects, concentration [2]: 10 to 100 nM
optimal in vivo effects, concentration ([3]; FIG. 3B): 10 to 100 nM
brain concentration as a potential target for pharmacodynamic effect ([3]; from in vitro and in vivo correlations): 10 to 100 nM
brain penetration / biodistribution across the blood-brain-barrier [4]: brain penetrant and exhibited optimized biodistribution across the blood-brain-barrier
body weight differences related to administration ([5]; 5 mg/kg/day SC): no differences in body weights
mortality ([5]; 5 mg/kg/day SC): no mortality
tolerability ([5]; SC injection at 5 mg/kg/day): well tolerated
time-concentration profile in plasma, CSF, and brain, rat versus nonhuman primate [6]: very similar in rat and nonhuman primate
safety profile [7]: consistent safety profile; also recorded: generally safe
